The first experiment has as its system Daudi cells. Put plainly: Cell proliferation experiment, Daudi. The settings on record: Homo sapiens, Daudi, Daudi cells; read-out: Inhibitory activity IC50 on Daudi. Format: cell-based, human. In short, it runs like this:
(§1)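 Viability read by Alamar blue. 72 h treatment, 5-fold dilution series, duplicates; log-phase cells in 96-well plates; IC50 by curve fit.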
Turning to `CNC(=O)c1ccccc1Nc1nc(Nc2ccc(N3CCN(C(=O)N[C@H]4CC[C@@H](NCCOCCC#Cc5ccc6c(c5)CN(C5CCC(=O)NC5=O)C6=O)CC4)CC3)cc2)ncc1Cl` (stereo partly drawn) [UB-181080], the IC50 lay in the range of 10 to 100 nM.
On to `CNC(=O)c1ccccc1Nc1nc(Nc2ccc(N3CCN(C(=O)N[C@H]4CC[C@@H](NCCCC#Cc5cccc6c5CN(C5CCC(=O)NC5=O)C6=O)CC4)CC3)cc2)ncc1Cl` (stereo partly drawn) [UB-181100], for which the half-inhibitory concentration (IC50) was in the range of 10 to 100 nM.
On to `CNC(=O)c1ccccc1Nc1nc(Nc2ccc(N3CCN(C(=O)N[C@H]4CC[C@@H](NCCCC#Cc5ccc6c(c5)CN(C5CCC(=O)NC5=O)C6=O)CC4)CC3)cc2)ncc1Cl` (stereo partly drawn) [UB-181101], for which the IC50 was 10 to 100 nM.
Regarding `CNC(=O)c1ccccc1Nc1nc(Nc2ccc(N3CCN(C(=O)N[C@H]4CC[C@@H](NCCCCOCC(=O)Nc5cccc6c5CN(C5CCC(=O)NC5=O)C6=O)CC4)CC3)cc2)ncc1Cl` (stereo partly drawn) [UB-181102], the half-maximal inhibitory concentration (IC50) was 100 to 1000 nM.
`CNC(=O)c1ccccc1Nc1nc(Nc2ccc(N3CCN(C(=O)N[C@H]4CC[C@@H](NCCC#Cc5ccc6c(c5)CN(C5CCC(=O)NC5=O)C6=O)CC4)CC3)cc2)ncc1Cl` (stereo partly drawn) [UB-181103]: the IC50 lay in the range of 10 to 100 nM.
On to `CNC(=O)c1ccccc1Nc1nc(Nc2ccc(N3CCN(C(=O)N[C@H]4CC[C@@H](NCCC#Cc5cccc6c5CN(C5CCC(=O)NC5=O)C6=O)CC4)CC3)cc2)ncc1Cl` (stereo partly drawn) [UB-181104], for which the IC50 was in the range of 10 to 100 nM.

A further experiment concerns PC-3. In words: Cell proliferation experiment, PC-3. In kind it is cell-based, human. The note with it: Homo sapiens, PC-3, PC-3 cells; read-out: Inhibitory activity IC50 on PC-3. In outline: as §1
On to `CNC(=O)c1ccccc1Nc1nc(Nc2ccc(N3CCN(C(=O)N[C@H]4CC[C@@H](NCCOCCC#Cc5ccc6c(c5)CN(C5CCC(=O)NC5=O)C6=O)CC4)CC3)cc2)ncc1Cl` (stereo partly drawn) [UB-181080], for which the IC50 was 10 to 100 nM.
The same measure, in the same setting: with `CNC(=O)c1ccccc1Nc1nc(Nc2ccc(N3CCN(C(=O)N[C@H]4CC[C@@H](NCCCC#Cc5cccc6c5CN(C5CCC(=O)NC5=O)C6=O)CC4)CC3)cc2)ncc1Cl` (stereo partly drawn) [UB-181100] the figure was 10 to 100 nM.
For `CNC(=O)c1ccccc1Nc1nc(Nc2ccc(N3CCN(C(=O)N[C@H]4CC[C@@H](NCCCC#Cc5ccc6c(c5)CN(C5CCC(=O)NC5=O)C6=O)CC4)CC3)cc2)ncc1Cl` (stereo partly drawn) [UB-181101], the IC50 was 100 to 1000 nM.
For the molecule `CNC(=O)c1ccccc1Nc1nc(Nc2ccc(N3CCN(C(=O)N[C@H]4CC[C@@H](NCCCCOCC(=O)Nc5cccc6c5CN(C5CCC(=O)NC5=O)C6=O)CC4)CC3)cc2)ncc1Cl` (stereo partly drawn) [UB-181102], the IC50 is over 1000 nM.
`CNC(=O)c1ccccc1Nc1nc(Nc2ccc(N3CCN(C(=O)N[C@H]4CC[C@@H](NCCC#Cc5ccc6c(c5)CN(C5CCC(=O)NC5=O)C6=O)CC4)CC3)cc2)ncc1Cl` (stereo partly drawn) [UB-181103]: the IC50 was in the range of 10 to 100 nM.
As for `CNC(=O)c1ccccc1Nc1nc(Nc2ccc(N3CCN(C(=O)N[C@H]4CC[C@@H](NCCC#Cc5cccc6c5CN(C5CCC(=O)NC5=O)C6=O)CC4)CC3)cc2)ncc1Cl` (stereo partly drawn) [UB-181104], the IC50 is 10 to 100 nM.

The subject of a further experiment is MDA-MB-231 cells. Put plainly: Cell proliferation experiment, MDA-MB-231. In kind it is cell-based, human. The settings on record: Homo sapiens, MDA-MB-231, MDA-MB-231 cells; read-out: Inhibitory activity IC50 on MDA-MB-231. In short, it runs like this:
as §1
In the case of `CNC(=O)c1ccccc1Nc1nc(Nc2ccc(N3CCN(C(=O)N[C@H]4CC[C@@H](NCCOCCC#Cc5ccc6c(c5)CN(C5CCC(=O)NC5=O)C6=O)CC4)CC3)cc2)ncc1Cl` (stereo partly drawn) [UB-181080], the half-maximal inhibitory concentration (IC50) lay within 100 to 1000 nM.
The same measure, in the same setting: with `CNC(=O)c1ccccc1Nc1nc(Nc2ccc(N3CCN(C(=O)N[C@H]4CC[C@@H](NCCCC#Cc5cccc6c5CN(C5CCC(=O)NC5=O)C6=O)CC4)CC3)cc2)ncc1Cl` (stereo partly drawn) [UB-181100] the figure was 100 to 1000 nM; with `CNC(=O)c1ccccc1Nc1nc(Nc2ccc(N3CCN(C(=O)N[C@H]4CC[C@@H](NCCCC#Cc5ccc6c(c5)CN(C5CCC(=O)NC5=O)C6=O)CC4)CC3)cc2)ncc1Cl` (stereo partly drawn) [UB-181101], 100 to 1000 nM; with `CNC(=O)c1ccccc1Nc1nc(Nc2ccc(N3CCN(C(=O)N[C@H]4CC[C@@H](NCCCCOCC(=O)Nc5cccc6c5CN(C5CCC(=O)NC5=O)C6=O)CC4)CC3)cc2)ncc1Cl` (stereo partly drawn) [UB-181102], over 1000 nM.
On to `CNC(=O)c1ccccc1Nc1nc(Nc2ccc(N3CCN(C(=O)N[C@H]4CC[C@@H](NCCC#Cc5ccc6c(c5)CN(C5CCC(=O)NC5=O)C6=O)CC4)CC3)cc2)ncc1Cl` (stereo partly drawn) [UB-181103], for which the IC50 lay within 100 to 1000 nM.
In the case of `CNC(=O)c1ccccc1Nc1nc(Nc2ccc(N3CCN(C(=O)N[C@H]4CC[C@@H](NCCC#Cc5cccc6c5CN(C5CCC(=O)NC5=O)C6=O)CC4)CC3)cc2)ncc1Cl` (stereo partly drawn) [UB-181104], the IC50 lay within 100 to 1000 nM.

The test system of a further experiment is MV4;11 cells. Put plainly: Cell proliferation experiment (Alamar blue, 72 h), MV4;11. In kind it is cell-based, human. The note with it: Homo sapiens, MV4-11, MV4;11 cells; read-out: Inhibitory activity IC50 on MV4;11. In outline: as §1
As to `CNC(=O)c1ccccc1Nc1nc(Nc2ccc(N3CCN(C(=O)N[C@H]4CC[C@@H](NCCOCCC#Cc5ccc6c(c5)CN(C5CCC(=O)NC5=O)C6=O)CC4)CC3)cc2)ncc1Cl` (stereo partly drawn) [UB-181080], the IC50 was under 10 nM.
Turning to `CNC(=O)c1ccccc1Nc1nc(Nc2ccc(N3CCN(C(=O)N[C@H]4CC[C@@H](NCCCC#Cc5cccc6c5CN(C5CCC(=O)NC5=O)C6=O)CC4)CC3)cc2)ncc1Cl` (stereo partly drawn) [UB-181100], the half-inhibitory concentration (IC50) was under 10 nM.
On to `CNC(=O)c1ccccc1Nc1nc(Nc2ccc(N3CCN(C(=O)N[C@H]4CC[C@@H](NCCCC#Cc5ccc6c(c5)CN(C5CCC(=O)NC5=O)C6=O)CC4)CC3)cc2)ncc1Cl` (stereo partly drawn) [UB-181101], for which the IC50 was under 10 nM.
Turning to `CNC(=O)c1ccccc1Nc1nc(Nc2ccc(N3CCN(C(=O)N[C@H]4CC[C@@H](NCCCCOCC(=O)Nc5cccc6c5CN(C5CCC(=O)NC5=O)C6=O)CC4)CC3)cc2)ncc1Cl` (stereo partly drawn) [UB-181102], the half-maximal inhibitory concentration (IC50) fell in the range of 10 to 100 nM.
On the same count and under the same terms, with `CNC(=O)c1ccccc1Nc1nc(Nc2ccc(N3CCN(C(=O)N[C@H]4CC[C@@H](NCCC#Cc5ccc6c(c5)CN(C5CCC(=O)NC5=O)C6=O)CC4)CC3)cc2)ncc1Cl` (stereo partly drawn) [UB-181103] the figure was under 10 nM.
On the same count and under the same terms, with `CNC(=O)c1ccccc1Nc1nc(Nc2ccc(N3CCN(C(=O)N[C@H]4CC[C@@H](NCCC#Cc5cccc6c5CN(C5CCC(=O)NC5=O)C6=O)CC4)CC3)cc2)ncc1Cl` (stereo partly drawn) [UB-181104] the figure was under 10 nM.

The test system of the next experiment is NCIH82 cells. Put plainly: Cell proliferation experiment, NCI-H82. In kind it is cell-based, human. The settings on record: Homo sapiens, NCI-H82, NCI-H82 cells; read-out: Inhibitory activity IC50 on NCI-H82. In short, it runs like this: as §1
On to `CNC(=O)c1ccccc1Nc1nc(Nc2ccc(N3CCN(C(=O)N[C@H]4CC[C@@H](NCCCC#Cc5cccc6c5CN(C5CCC(=O)NC5=O)C6=O)CC4)CC3)cc2)ncc1Cl` (stereo partly drawn) [UB-181100], for which the IC50 fell in the range of 10 to 100 nM.
Turning to `CNC(=O)c1ccccc1Nc1nc(Nc2ccc(N3CCN(C(=O)N[C@H]4CC[C@@H](NCCCC#Cc5ccc6c(c5)CN(C5CCC(=O)NC5=O)C6=O)CC4)CC3)cc2)ncc1Cl` (stereo partly drawn) [UB-181101], the IC50 was in the range of 10 to 100 nM.
Take `CNC(=O)c1ccccc1Nc1nc(Nc2ccc(N3CCN(C(=O)N[C@H]4CC[C@@H](NCCCCOCC(=O)Nc5cccc6c5CN(C5CCC(=O)NC5=O)C6=O)CC4)CC3)cc2)ncc1Cl` (stereo partly drawn) [UB-181102]: the IC50 lay within 100 to 1000 nM.
Turning to `CNC(=O)c1ccccc1Nc1nc(Nc2ccc(N3CCN(C(=O)N[C@H]4CC[C@@H](NCCC#Cc5ccc6c(c5)CN(C5CCC(=O)NC5=O)C6=O)CC4)CC3)cc2)ncc1Cl` (stereo partly drawn) [UB-181103], the IC50 is 10 to 100 nM.
For `CNC(=O)c1ccccc1Nc1nc(Nc2ccc(N3CCN(C(=O)N[C@H]4CC[C@@H](NCCC#Cc5cccc6c5CN(C5CCC(=O)NC5=O)C6=O)CC4)CC3)cc2)ncc1Cl` (stereo partly drawn) [UB-181104], the IC50 lay in the range of 10 to 100 nM.

The same experiment, now with this note: NCI-H82 cells; read-out: Inhibitory activity IC50 on NCI-H82.
Turning to `CNC(=O)c1ccccc1Nc1nc(Nc2ccc(N3CCN(C(=O)N[C@H]4CC[C@@H](NCCOCCC#Cc5ccc6c(c5)CN(C5CCC(=O)NC5=O)C6=O)CC4)CC3)cc2)ncc1Cl` (stereo partly drawn) [UB-181080], the IC50 is 100 to 1000 nM.
